Where two headings read alike, the source gives them in different places.
Assays:
Type in all cases: in vivo
corn (Zea mays) = assay: Test A pre-/postemergence greenhouse herbicide test, visual injury rating 0-100; conditions: for plant injury at 500 g/ha: 500 g ai/ha
Procedure, shortened: (§1)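 Seeds sown in loam soil–sand blend; preemergence directed soil spray and, simultaneously, postemergence spray on plants 2 to 10 cm tall at one- to two-leaf stage. Compounds formulated in non-phytotoxic solvent mixture with surfactant. Injury rated visually versus untreated controls after ~10 days in greenhouse.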

[1] = tested on: morningglory (Ipomoea spp.); assay: as above; conditions: for pest or weed control at 500 g/ha: 500 g ai/ha
Procedure, shortened: as §1

[2] = tested on: velvetleaf (Abutilon theophrasti); assay: as above; conditions: for pest or weed control at 500 g/ha: 500 g ai/ha
Procedure, shortened: as §1

[3] = tested on: pigweed (Amaranthus retroflexus); assay: as above; conditions: for pest or weed control at 500 g/ha: 500 g ai/ha
Procedure, shortened: as §1

[4] = tested on: giant foxtail (Setaria faberii); assay: as above; conditions: for pest or weed control at 500 g/ha: 500 g ai/ha
Procedure, shortened: as §1

[5] = tested on: large (Lg) crabgrass (Digitaria sanguinalis); assay: as above; conditions: for pest or weed control at 500 g/ha: 500 g ai/ha
Procedure, shortened: as §1

[6] = tested on: wheat (Triticum aestivum); assay: as above; conditions: for plant injury at 500 g/ha: 500 g ai/ha
Procedure, shortened: as §1

[7] = tested on: barnyardgrass (Echinochloa crus-galli); assay: as above; conditions: for pest or weed control at 500 g/ha: 500 g ai/ha
Procedure, shortened: as §1

[8] = tested on: johnsongrass (Sorghum halepense); assay: Test C pre-/postemergence greenhouse test, plant response rating 0-100; conditions: Sorghum halepense; for pest or weed control at 62 g/ha: 62 g ai/ha; for pest or weed control at 125 g/ha: 125 g ai/ha; for pest or weed control at 250 g/ha: 250 g ai/ha; for pest or weed control at 500 g/ha: 500 g ai/ha
Procedure, shortened: (§2)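 Seeds were sown in a loam soil–sand blend and sprayed preemergence with test chemicals in a non-phytotoxic solvent mixture containing surfactant; postemergence plants in peat/vermiculite medium were treated at 2–18 cm (1- to 4-leaf stage). After 13 to 15 days in the greenhouse, injury was rated visually against untreated controls.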

[9] = tested on: velvetleaf (Abutilon theophrasti); assay: as above; conditions: Abutilon theophrasti; for pest or weed control at 62 g/ha: 62 g ai/ha; for pest or weed control at 125 g/ha: 125 g ai/ha; for pest or weed control at 250 g/ha: 250 g ai/ha; for pest or weed control at 500 g/ha: 500 g ai/ha
Procedure, shortened: as §2

[10] = tested on: lambsquarters (Chenopodium album); assay: as above; conditions: Chenopodium album; for pest or weed control at 62 g/ha: 62 g ai/ha; for pest or weed control at 125 g/ha: 125 g ai/ha; for pest or weed control at 250 g/ha: 250 g ai/ha; for pest or weed control at 500 g/ha: 500 g ai/ha
Procedure, shortened: as §2

[11] = tested on: morningglory (Ipomoea coccinea); assay: as above; conditions: Ipomoea; for pest or weed control at 62 g/ha: 62 g ai/ha; for pest or weed control at 125 g/ha: 125 g ai/ha; for pest or weed control at 250 g/ha: 250 g ai/ha; for pest or weed control at 500 g/ha: 500 g ai/ha
Procedure, shortened: as §2

[12] = post-emergence, Postemergence, read-out: Plant response rating (0 to 100), Johnsongrass
[13] = post-emergence, Postemergence, scale 0 to 100
[14] = pre-emergence, Preemergence, read-out: Plant response rating, Johnsongrass
[15] = post-emergence, Postemergence, read-out: Plant response rating (0 to 100), Velvetleaf
[16] = pre-emergence, Preemergence, read-out: Plant response rating, Velvetleaf
[17] = post-emergence, Postemergence, read-out: Plant response rating (0 to 100), Lambsquarters
[18] = pre-emergence, Preemergence, read-out: Plant response rating, Lambsquarters
[19] = post-emergence, Postemergence, read-out: Plant response rating (0 to 100), Morningglory
[20] = pre-emergence, Preemergence, read-out: Plant response rating, Morningglory

Q: Which results are given for `COCC(=O)n1cc(C(=O)c2ccccc2)c(-c2cc(Cl)cc(Cl)c2)n1` [Compound 16, 1-[4-benzoyl-3-(3,5-dichlorophenyl)-1H-pyrazol-1-yl]-2-methoxyethanone]?
A: Corn plant response rating (0 = no effect, 100 = complete control) (corn (Zea mays); Preemergence, 125 g ai/ha): 0; plant injury at 125 g/ha (corn (Zea mays); Zea mays, post-emergence, 240 h, Postemergence, 125 g ai/ha, read-out: Plant response rating (0 to 100 scale), Corn): 0%; plant injury at 500 g/ha (corn (Zea mays); Zea mays, post-emergence, 240 h, Postemergence, read-out: Plant response rating (0 to 100 scale), Corn): 0%; plant injury at 500 g/ha (corn (Zea mays); Zea mays, pre-emergence, 240 h, Preemergence, read-out: Plant response rating (0 to 100 scale), Corn): 0%; pest or weed control at 125 g/ha ([1]; Ipomoea, post-emergence, 240 h, Postemergence, 125 g ai/ha, read-out: Plant response rating (0 to 100 scale), Morningglory): 0%; pest or weed control at 500 g/ha ([1]; Ipomoea, post-emergence, 240 h, Postemergence, read-out: Plant response rating (0 to 100 scale), Morningglory): 0%; pest or weed control at 500 g/ha ([1]; Ipomoea, pre-emergence, 240 h, Preemergence, read-out: Plant response rating (0 to 100 scale), Morningglory): 0%; Morningglory plant response rating (0 = no effect, 100 = complete control) ([1]; Preemergence, 125 g ai/ha): 0; pest or weed control at 125 g/ha ([2]; Abutilon theophrasti, post-emergence, 240 h, Postemergence, 125 g ai/ha, read-out: Plant response rating (0 to 100 scale), Velvetleaf): 80%; pest or weed control at 500 g/ha ([2]; Abutilon theophrasti, post-emergence, 240 h, Postemergence, read-out: Plant response rating (0 to 100 scale), Velvetleaf): 90%; pest or weed control at 500 g/ha ([2]; Abutilon theophrasti, pre-emergence, 240 h, Preemergence, read-out: Plant response rating (0 to 100 scale), Velvetleaf): 80%; Velvetleaf plant response rating (0 = no effect, 100 = complete control) ([2]; Preemergence, 125 g ai/ha): 20; pest or weed control at 125 g/ha ([3]; Amaranthus retroflexus, post-emergence, 240 h, Postemergence, 125 g ai/ha, read-out: Plant response rating (0 to 100 scale), Pigweed): 80%; pest or weed control at 500 g/ha ([3]; Amaranthus retroflexus, post-emergence, 240 h, Postemergence, read-out: Plant response rating (0 to 100 scale), Pigweed): 100%; pest or weed control at 500 g/ha ([3]; Amaranthus retroflexus, pre-emergence, 240 h, Preemergence, read-out: Plant response rating (0 to 100 scale), Pigweed): 100%; Pigweed plant response rating (0 = no effect, 100 = complete control) ([3]; Preemergence, 125 g ai/ha): 60; Foxtail, Giant plant response rating (0 = no effect, 100 = complete control) ([4]; Preemergence, 125 g ai/ha): 0; pest or weed control at 125 g/ha ([4]; Setaria faberi, post-emergence, 240 h, Postemergence, 125 g ai/ha, read-out: Plant response rating (0 to 100 scale), Foxtail, Giant): 0%; pest or weed control at 500 g/ha ([4]; Setaria faberi, post-emergence, 240 h, Postemergence, read-out: Plant response rating (0 to 100 scale), Foxtail, Giant): 0%; pest or weed control at 500 g/ha ([4]; Setaria faberi, pre-emergence, 240 h, Preemergence, read-out: Plant response rating (0 to 100 scale), Foxtail, Giant): 0%; pest or weed control at 125 g/ha ([5]; Digitaria sanguinalis, post-emergence, 240 h, Postemergence, 125 g ai/ha, read-out: Plant response rating (0 to 100 scale), Crabgrass, Large): 0%; pest or weed control at 500 g/ha ([5]; Digitaria sanguinalis, post-emergence, 240 h, Postemergence, read-out: Plant response rating (0 to 100 scale), Crabgrass, Large): 0%; pest or weed control at 500 g/ha ([5]; Digitaria sanguinalis, pre-emergence, 240 h, Preemergence, read-out: Plant response rating (0 to 100 scale), Crabgrass, Large): 0%; Crabgrass, Large plant response rating (0 = no effect, 100 = complete control) ([5]; Preemergence, 125 g ai/ha): 0; Wheat plant response rating (0 = no effect, 100 = complete control) ([6]; Preemergence, 125 g ai/ha): 0; plant injury at 125 g/ha ([6]; Triticum aestivum, post-emergence, 240 h, Postemergence, 125 g ai/ha, read-out: Plant response rating (0 to 100 scale), Wheat): 0%; plant injury at 500 g/ha ([6]; Triticum aestivum, post-emergence, 240 h, Postemergence, read-out: Plant response rating (0 to 100 scale), Wheat): 0%; plant injury at 500 g/ha ([6]; Triticum aestivum, pre-emergence, 240 h, Preemergence, read-out: Plant response rating (0 to 100 scale), Wheat): 0%; pest or weed control at 125 g/ha ([7]; Echinochloa crus-galli, post-emergence, 240 h, Postemergence, 125 g ai/ha, read-out: Plant response rating (0 to 100 scale), Barnyardgrass): 0%; pest or weed control at 500 g/ha ([7]; Echinochloa crus-galli, post-emergence, 240 h, Postemergence, read-out: Plant response rating (0 to 100 scale), Barnyardgrass): 0%; pest or weed control at 500 g/ha ([7]; Echinochloa crus-galli, pre-emergence, 240 h, Preemergence, read-out: Plant response rating (0 to 100 scale), Barnyardgrass): 0%; Barnyardgrass plant response rating (0 = no effect, 100 = complete control) ([7]; Preemergence, 125 g ai/ha): 0; pest or weed control at 62 g/ha [8, 12]: 0%; pest or weed control at 125 g/ha [8, 12]: 0%; pest or weed control at 250 g/ha [8, 13]: 0%; pest or weed control at 500 g/ha [8, 13]: 0%; pest or weed control at 62 g/ha [8, 14]: 0%; pest or weed control at 125 g/ha [8, 14]: 0%; pest or weed control at 250 g/ha ([8]; pre-emergence, Preemergence): 0%; pest or weed control at 500 g/ha ([8]; pre-emergence, Preemergence): 0%; pest or weed control at 62 g/ha [9, 15]: 85%; pest or weed control at 125 g/ha [9, 15]: 90%; pest or weed control at 250 g/ha [9, 13]: 90%; pest or weed control at 500 g/ha [9, 13]: 90%; pest or weed control at 62 g/ha [9, 16]: 65%; pest or weed control at 125 g/ha [9, 16]: 100%; pest or weed control at 250 g/ha ([9]; pre-emergence, Preemergence): 100%; pest or weed control at 500 g/ha ([9]; pre-emergence, Preemergence): 100%; pest or weed control at 62 g/ha [10, 17]: 70%; pest or weed control at 125 g/ha [10, 17]: 75%; pest or weed control at 250 g/ha [10, 13]: 75%; pest or weed control at 500 g/ha [10, 13]: 75%; pest or weed control at 62 g/ha [10, 18]: 100%; pest or weed control at 125 g/ha [10, 18]: 100%; pest or weed control at 250 g/ha ([10]; pre-emergence, Preemergence): 100%; pest or weed control at 500 g/ha ([10]; pre-emergence, Preemergence): 100%; pest or weed control at 62 g/ha [11, 19]: 0%; pest or weed control at 125 g/ha [11, 19]: 0%; pest or weed control at 250 g/ha [11, 13]: 0%; pest or weed control at 500 g/ha [11, 13]: 0%; pest or weed control at 62 g/ha [11, 20]: 0%; pest or weed control at 125 g/ha [11, 20]: 0%; pest or weed control at 250 g/ha ([11]; pre-emergence, Preemergence): 0%; pest or weed control at 500 g/ha ([11]; pre-emergence, Preemergence): 0%
